Tests used:
[1] = test system: control sera (pooled serum of ten healthy LUMC hospital workers; commercial negative donor pooled serum from the Dutch bloodbank); assay type: binding, human; parameters: Binding of Control serum LUMC to linear peptides / Binding of Control serum Blood-bank to linear peptides / Binding of Control serum LUMC to looped peptides / Binding of Control Serum Blood-Bank to Looped peptides / Binding of Control serum LUMC to linear peptides of the protein M of SARS-CoV Urbani / Binding of Control serum Blood-bank to linear peptides of the protein M of SARS-CoV Urbani / Binding of Control serum LUMC to looped peptides of the protein M of SARS-CoV Urbani / Binding of Control Serum Blood-Bank to Looped peptides of the protein M of SARS-CoV Urbani: unit not given here
[2] = test system: rabbit serum obtained by immunizing a rabbit with the SARS-CoV strain Frankfurt 1; assay type: binding; parameters: Binding of a rabbit serum to linear peptides / Binding of a rabbit serum to looped peptides / Rabbit serum linear peptides / Rabbit serum looped peptides / Binding of a rabbit serum to linear peptides of protein N of SARS-CoV Urbani (Rabbit serum linear peptides) / Binding of a rabbit serum to looped/cyclic peptides of protein N of SARS-CoV Urbani (Rabbit serum looped peptides): unit not given here

| Sequence | Rabbit serum linear peptides [2] | Rabbit serum looped peptides [2] | Binding of Control Serum Blood-Bank to Looped peptides [1] | Binding of Control serum Blood-bank to linear peptides [1] | Binding of Control serum LUMC to linear peptides [1] | Binding of Control serum LUMC to looped peptides [1] | Binding of a rabbit serum to linear peptides [2] | Binding of a rabbit serum to looped peptides [2] | other results |
| --- | --- | --- | --- | --- | --- | --- | --- | --- | --- |
| IAIAMACIVGLMWLS | 0.1 | 0.3 |  |  |  |  |  |  | Binding of Control Serum Blood-Bank to Looped peptides of the protein M of SARS-CoV Urbani [1]: 0.8; Binding of Control serum Blood-bank to linear peptides of the protein M of SARS-CoV Urbani [1]: 0.5; Binding of Control serum LUMC to linear peptides of the protein M of SARS-CoV Urbani [1]: 0.6; Binding of Control serum LUMC to looped peptides of the protein M of SARS-CoV Urbani [1]: 0.7 |
| DGSSGVANPAMDPIY |  |  | 0.5 | 0.9 | 0.8 | 0.4 | 0.1 | 0.6 |  |
| IIIMRTFRIAIWNLD | 0.4 | 0.5 |  |  |  |  |  |  | Binding of Control Serum Blood-Bank to Looped peptides of the protein X3 of SARS-CoV Urbani [1]: 0.8; Binding of Control serum Blood-bank to linear peptides of the protein X3 of SARS-CoV Urbani [1]: 0.9; Binding of Control serum LUMC to linear peptides of the protein X3 of SARS-CoV Urbani [1]: 0.9; Binding of Control serum LUMC to looped peptides of the protein X3 of SARS-CoV Urbani [1]: 0.8 |
| HQNSKKTTKLVVILR |  |  | 0.6 | 0.5 | 0.8 | 0.6 |  |  | Recognition of the peptide by the rabbit serum [2]: recognized |
| RHSGVKDYVVVHGYF |  |  | 0.7 | 0.6 | 0.5 | 0.6 | 0.1 | 0.4 |  |
| NYSELDDEEPMELDY | 0.4 | 0.3 |  |  |  |  |  |  | Binding of Control Serum Blood-Bank to Looped peptides of the protein X3 of SARS-CoV Urbani [1]: 0.8; Binding of Control serum Blood-bank to linear peptides of the protein X3 of SARS-CoV Urbani [1]: 0.9; Binding of Control serum LUMC to linear peptides of the protein X3 of SARS-CoV Urbani [1]: 0.9; Binding of Control serum LUMC to looped peptides of the protein X3 of SARS-CoV Urbani [1]: 0.9 |
| LGRCDIKDLPKEITV | 0.1 | 0.6 |  |  |  |  |  |  | Binding of Control Serum Blood-Bank to Looped peptides of the protein M of SARS-CoV Urbani [1]: 0.8; Binding of Control serum Blood-bank to linear peptides of the protein M of SARS-CoV Urbani [1]: 0.7; Binding of Control serum LUMC to linear peptides of the protein M of SARS-CoV Urbani [1]: 0.5; Binding of Control serum LUMC to looped peptides of the protein M of SARS-CoV Urbani [1]: 0.8 |
| KPLTKKNYSELDDEE | 0.4 | 0.5 |  |  |  |  |  |  | Binding of Control Serum Blood-Bank to Looped peptides of the protein X3 of SARS-CoV Urbani [1]: 0.8; Binding of Control serum Blood-bank to linear peptides of the protein X3 of SARS-CoV Urbani [1]: 0.7; Binding of Control serum LUMC to linear peptides of the protein X3 of SARS-CoV Urbani [1]: 0.8; Binding of Control serum LUMC to looped peptides of the protein X3 of SARS-CoV Urbani [1]: 0.7 |
| QVLKTMSLYMAISPK |  |  | 0.4 | 0.9 | 0.7 | 0.4 | 0.1 | 0.5 |  |
| ISSIVRQLFKPLTKK | 0.3 | 0.5 |  |  |  |  |  |  | Binding of Control Serum Blood-Bank to Looped peptides of the protein X3 of SARS-CoV Urbani [1]: 0.8; Binding of Control serum Blood-bank to linear peptides of the protein X3 of SARS-CoV Urbani [1]: 0.8; Binding of Control serum LUMC to linear peptides of the protein X3 of SARS-CoV Urbani [1]: 0.9; Binding of Control serum LUMC to looped peptides of the protein X3 of SARS-CoV Urbani [1]: 0.7 |
| SIVRQLFKPLTKKNY | 0.3 | 0.4 |  |  |  |  |  |  | Binding of Control Serum Blood-Bank to Looped peptides of the protein X3 of SARS-CoV Urbani [1]: 0.8; Binding of Control serum Blood-bank to linear peptides of the protein X3 of SARS-CoV Urbani [1]: 0.8; Binding of Control serum LUMC to linear peptides of the protein X3 of SARS-CoV Urbani [1]: 0.7; Binding of Control serum LUMC to looped peptides of the protein X3 of SARS-CoV Urbani [1]: 0.8 |
| CCNIVNVSLVKPTVY |  |  | 0.4 | 0.7 | 0.5 | 0.5 | 0.6 | 0.0 |  |
| SSGVANPAMDPIYDE |  |  | 0.7 | 0.5 | 0.5 | 0.7 | 0.1 | 0.6 |  |
| YCIPYNSVTDTIVVT |  |  | 0.7 | 0.8 | 0.7 | 0.7 | 0.1 | 0.5 |  |
| WHTMVQTCTPNVTIN | 0.5 | 0.0 | 0.5 | 1.0 | 0.5 | 0.4 |  |  |  |
| KLNTDHAGSNDNIAL | 0.4 | 0.3 |  |  |  |  |  |  | Binding of Control Serum Blood-Bank to Looped peptides of the protein M of SARS-CoV Urbani [1]: 1.0; Binding of Control serum Blood-bank to linear peptides of the protein M of SARS-CoV Urbani [1]: 0.9; Binding of Control serum LUMC to linear peptides of the protein M of SARS-CoV Urbani [1]: 0.7; Binding of Control serum LUMC to looped peptides of the protein M of SARS-CoV Urbani [1]: 0.9 |
| GYSEDRHSGVKDYVV |  |  | 0.6 | 0.8 | 0.8 | 0.6 | 0.1 | 0.3 |  |
| NVSLVKPTVYVYSRV |  |  | 0.7 | 0.6 | 0.5 | 0.8 | 0.5 | 0.3 |  |
| MDPIYDEPTTTTSVP |  |  | 0.3 | 0.6 | 0.5 | 0.3 | 0.1 | 0.3 |  |
| VNVSLVKPTVYVYSR |  |  | 0.6 | 0.6 | 0.8 | 0.8 | 0.4 | 0.6 |  |
| AGHPLGRCDIKDLPK | 0.1 | 0.1 |  |  |  |  |  |  | Binding of Control Serum Blood-Bank to Looped peptides of the protein M of SARS-CoV Urbani [1]: 0.9; Binding of Control serum Blood-bank to linear peptides of the protein M of SARS-CoV Urbani [1]: 1.1; Binding of Control serum LUMC to linear peptides of the protein M of SARS-CoV Urbani [1]: 0.8; Binding of Control serum LUMC to looped peptides of the protein M of SARS-CoV Urbani [1]: 0.7 |
| FFTLGSITAQPVKID |  |  | 0.2 | 0.5 | 0.5 | 0.3 | 1.1 | 0.0 |  |
| CNIVNVSLVKPTVYV |  |  | 0.6 | 0.7 | 0.8 | 0.8 | 0.1 | 0.5 |  |
| TTKLVVILRIGTQVL |  |  | 0.6 | 0.3 | 0.3 | 0.7 |  |  | Recognition of the peptide by the rabbit serum [2]: recognized |
| HYQECVRGTTVLLKE | 0.5 | 0.5 | 0.9 | 0.8 | 0.7 | 1.0 |  |  |  |
| TPKLKEDYQIGGYSE |  |  | 0.7 | 0.5 | 0.6 | 0.9 | 0.1 | 1.2 |  |
| TGGIAIAMACIVGLM | 0.5 | 0.3 |  |  |  |  |  |  | Binding of Control Serum Blood-Bank to Looped peptides of the protein M of SARS-CoV Urbani [1]: 1.1; Binding of Control serum Blood-bank to linear peptides of the protein M of SARS-CoV Urbani [1]: 1.1; Binding of Control serum LUMC to linear peptides of the protein M of SARS-CoV Urbani [1]: 0.6; Binding of Control serum LUMC to looped peptides of the protein M of SARS-CoV Urbani [1]: 1.1 |
| VKNLNSSEGVPDLLV |  |  | 0.8 | 0.7 | 1.1 | 0.9 | 0.3 | 0.6 |  |
| KLKEDYQIGGYSEDR |  |  | 0.5 | 0.5 | 0.5 | 0.6 | 0.1 | 0.5 |  |
| LYHYQECVRGTTVLL | 0.6 | 0.3 | 0.7 | 0.6 | 0.6 | 0.6 |  |  |  |

Reference: patent US20070128217A1 (priority 2003, published 2007)
